From article PMC8776730 (Nature Communications, 2022)

Tests used:
[1] = Secondary structure proportions from CD spectra; assay type: physicochemical; conditions: calculated by Reed's Reference based on CD spectra; DI water
Excerpt: To further evaluate the assembled structures, the corresponding circular dichroism (CD), Fourier transform infrared (FTIR) spectroscopy, and wide-angle X-ray scattering (WAXS) spectroscopy were applied. […] The FITR spectra of M1 and M3 in Fig. 3b observed the intermolecular interactions. The peaks at 1629 cm^−1, 1675 cm^−1, and 1698 cm^–1 of M3 indicated anti-parallel β-sheet structure (represent by green arrow heads), peaks at 1648 cm^−1 and 1663 cm^−1 indicated parallel beta sheet structure (represent by blue arrow heads), the existence of 1654 cm^−1 indicate α-Helix structure in M1 which verified the results deduced by CD in Fig. 3a[29],[30]. […] As a homologous sequence with amyloid β-protein (Aβ), the self-assembly motif with peptide sequence of KLVFFGCG had similar aggregation kinetics to (Aβ)42 peptide, which occurred via dynamic growth from oligomers to amyloid fibrils. The aggregation started from the freshly isolated monomers of R-M1, and precipitates were separated in 1 min and 1 h, respectively. […] After analyzed the CD spectra of M1, M3, and R-M1 (Fig. 3e), it can be clearly seen that the main secondary conformation of M1 was Random, the M3 was hybrid of Helix and Beta, and the R-M1 was Beta (Supplementary Table 1). All the results confirmed the conclusion from FTIR spectra. […] The dynamic growth procedure was like the 8-anilino-1-naphthalenesulfonic acid (ANS) stained curve (Supplementary Fig. 12). As known, ANS was sensitive to hydrophobic interaction. When R-M1 were in the initial oligomer, the fluorescence intensity of ANS increased due to the enhanced hydrophobicity. When the molecules were elongated and stacked in higher ordered nanofibrils, the blue shift of ANS in the β-sheet structures reduced the fluorescence. The molecular packing mode of well-ordered fibrils of R-M1 in Fig. 3g observed a weak reflection at 4.9 Å as laminates space and a strong broad reflection at 10.3 Å as sheet space, which was illustrated in the inserted figure. The fibril morphology was characterized by transmission electron microscopy (TEM) imaging (Fig. 3f). The statistical calculation of the fiber diameter in TEM images was 5.0 ± 0.4 nm (Supplementary Fig. 13), which was corresponded to the theoretical calculated two molecules length of R-M1. We assumed that the nanofibers were assembled by twisted R-M1 molecules centered on self-assembly motif.
The secondary structures of M1, M3 and R-M1 were verified by CD spectroscopy (JASCO Corporation, JC-1500) at room temperature with a cell path length of 1 cm. M1, […] and R-M1 were diluted to 100 μM with deionized water at 25 °C and allowed to stand for 12 h for complete assembly. Detail parameter setting were CD scale:200 mdeg/1.0Dod, measure range: 260~190 nm, scanning speed: 500 nm/min, bandwidth: 1.00 nm, and data pitch: 0.5 nm. All spectra were the average of three measurements.
Supplementary Table 1∣ Secondary structure proportions ofM1, M3 and R-M1 calculated by Reed’s Reference based on […]

MIA PaCa-2 cells = test: Transwell migration assay; assay type: cell-based; conditions: for migrated cells (Fig S20): MIA PaCa-2 cells
Description: Fig. 5 The BIVA effect with enhanced targeting to pancreatic tumor cell for boundaries imaging. a Illustration of BIVA effect: active targeting and assembly/aggregate induced retention (AIR) effect. b Chemical structure of FITC labeling. c 2D and 3D confocal images of M2 with active targeting property and M1 with BIVA effect on MIA PaCa-2 cells after incubation for 1 h. d The distribution of M1 on MIA PaCa-2 cell. e ThT staining of the lysed cell membrane of MIA PaCa-2. f, Illustration of migration inhibition after treated by BIVA probe. g The image of the migrated cells after treatment of PBS (blank), M2, M4, and M1. Scale bar: 100 μm. h The pie diagram of quantitative statistical calculation of the migrated cells (blue) in different groups. The blank control was set as 100% migrated cells.
In order to further understand the contribution of the active targeting and AIR effect during locating of the cells, the cell transwell experiment was used to quantitively evaluate interference of the cell migration based on M1, M2, and M4 (Fig. 5f). As expected, untreated cells were easy to migrate to the lower chamber, while the cells treated with active targeting molecule M2 and assembled molecule M4, the migration of cell were reduced. Under the same molar concentration, the M1 treatment group had the most inference on cell migration (Fig. 5g). […] Based on those results, we speculate M1 can be more enriched in the tumor site and form fibers through assembly to inhibit tumor cell migration compared to M2 and M4 which have no ability to target and adhere on the cell membrane.
Transwell migration assay occurred in chemotaxis chambers containing 24 wells. […] Bottom chambers contained DMEM medium containing 10% FBS. After 24 h of treatment with M1, M2, and M4 (150 μM), we fixed cells using 4% paraformaldehyde and stained with 0.25% crystal violet solution. The stained cells were counted using a microscope.
Supplementary Fig. 20∣ The quantitative results of the migrated cells after treatment of PBS (blank), M2, […] and
M1 (Fig 5g). The mean of results of fiveparallel experiments is shown and data were expressed as mean ± SD (n=5).
pM1 = 5.85E-06, pM2 = 5.94E-05, pM4 = 3.16 E-04, Statisticalanalysis: one-way ANOVA followed by post hoc Tukey’s
(1 picture or pasted object on this page, not shown here)

**Q.** For “mPEG-GPAKLVFFGCGRGD [M3, the non-labeling molecule of M1 (no IR783)]”, which Secondary structure proportion: Beta [1] is on record?
**A.** Its Secondary structure proportion: Beta is 38.7%.

**Q.** And the Secondary structure proportion: Helix [1]?
**A.** The Secondary structure proportion: Helix was 45%.

**Q.** And the Secondary structure proportion: Random [1]?
**A.** Its Secondary structure proportion: Random is 16.3%.

**Q.** And the Secondary structure proportion: Turn [1]?
**A.** Its Secondary structure proportion: Turn is 0%.

**Q.** What about the “migrated cells (Fig S20)” value (MIA PaCa-2 cells; averge of groups 1-3) of the same substance?
**A.** The value was 484.667.

**Q.** And the “migrated cells (Fig S20)” value (MIA PaCa-2 cells; group 1)?
**A.** Its value is 483.

**Q.** What about the “migrated cells (Fig S20)” value (MIA PaCa-2 cells; group 2) of the same substance?
**A.** The value was 456.

**Q.** What about the “migrated cells (Fig S20)” value (MIA PaCa-2 cells; group 3) of the same substance?
**A.** The value was 515.

**Q.** For mPEG-GPAKLVFFGC(IR783)GRGD [M1], which Secondary structure proportion: Beta [1] is on record?
**A.** Its Secondary structure proportion: Beta is 32.2%.

**Q.** And the Secondary structure proportion: Helix [1]?
**A.** The Secondary structure proportion: Helix was 0%.

**Q.** What about the Secondary structure proportion: Random [1] of the same substance?
**A.** The Secondary structure proportion: Random was 66.1%.

**Q.** And the Secondary structure proportion: Turn [1]?
**A.** The Secondary structure proportion: Turn was 1.7%.

**Q.** What about the “emigrate (migrated cells relative to blank)” value (MIA PaCa-2 cells; MIA PaCa-2, 150 μM, 24 h, blank control = 1) of the same substance?
**A.** The value was 0.3109.

**Q.** What about the “migrated cells (Fig S20)” value (MIA PaCa-2 cells; averge of groups 1-3) of the same substance?
**A.** Its value is 285.333.

**Q.** What about the “migrated cells (Fig S20)” value (MIA PaCa-2 cells; group 1) of the same substance?
**A.** Its value is 285.

**Q.** And the “migrated cells (Fig S20)” value (MIA PaCa-2 cells; group 2)?
**A.** Its value is 302.

**Q.** What about the “migrated cells (Fig S20)” value (MIA PaCa-2 cells; group 3) of the same substance?
**A.** Its value is 269.
